Assay results reported in US7001924B2, “Inhibitors of RNase P proteins as antibacterial compounds” (Message Pharmaceuticals, priority 2001, dated 2006).
Entries after “also recorded” stand apart in the source; their conditions may differ. Where a name gives a salt, the structure may show the parent alone.

What was measured:
[1] = test system: N. gonorrhea RNase P (M1 RNA and C5 protein); test: RNase P inhibition assay (fluorescence polarization, ptRNA Gln cleavage); assay type: biochemical; conditions: tested at 0.3, 1, 3 and 10 μM, result in words, numbers only in figures
Excerpt: The ability of compounds of the invention to inhibit RNase P enzymes can be assessed by standard techniques. For example, the cleavage of ptRNA^Gln by the enzyme N. Gonorrhea RNase P, can be monitored in the presence and absence of a candidate compound as described in the Example 23. The progress of the RNase P-mediated cleavage reaction can be assessed by measuring the fluorescence polarization level of the TAMRA moiety hybridized to the cleaved substrate
Compounds of the invention (see Table 1 and FIG. 3) were assayed for inhibition of RNase P activity. The assay components were the M1 RNA and C5 protein from N. gonorrhea and a model precursor tRNA substrate derived from Synechocystis ptGLN. The compounds were diluted in assay buffer (50 mM Tris-HCl, pH 7.5/100 mM […]/10 mM MgCl2/1 mM DTT/1 mg/ml BSA) from 2 μL of a 1 mM DMSO stock solutions in 384 well polypropylene plates to a concentration of 40 μM. 12.5 μL of each compound dilution was transferred to empty duplicate wells of two 384-well black polystyrene assay plates. One assay plate received 37.5 μL of assay buffer plus 12.5 μL of stop buffer (25 mM EDTA/1.25×SSC Buffer in PA buffer; SSC=150 mM NaCl, 15 mM sodium citrate and PA=50 mM TRIS hydrochloride, 100 mM ammonium chloride, 10 mM magnesium chloride) and was read immediately on a LJL Analyst fluorimeter to serve as a background fluorescence plate. The other plate sequentially received the following reagents diluted in assay buffer, 12.5 μL of 0.4 nM M1 RNA, 12.5 μL of 2 nM C5 protein, and 12.5 μL of 160 nM substrate. Wells were included that receive neither the M1 RNA nor the C5 protein to serve as no-enzyme controls. The enzymatic reaction was allowed to proceed for 30 minutes and was stopped by the addition of 12.5 μL per well of stop buffer containing 20 nM of a DNA-5′ TAMRA probe complementary to the 5′ end of the substrate. The probe was allowed to hybridize to the substrate for 2 hours, and the polarization status of the probe was measured using the LJL Analyst fluorimeter. All compounds were tested at 0.3 μM, 1 μM, 3 μM, and 10 μM concentrations. The results, which are expressed as a percentage of the control, were calculated using equation 1. In this equation, f is the fluorescence in counts per second; (f.enzyme+probe) is the fluorescence observed when enzymatic activity is uninhibited; (f.probe) is the fluorescence observed without enzymatic activity; and (f.compound+enzyme+probe) is the fluorescence observed when the enzymatic activity is modulated by a compound of the invention. Assay results for MES 35793 are shown in FIG. 7, and assay results for MES 31242, MES 82794, and MES 35793 are shown in FIG. 8. Other candidate RNase P inhibitors may be tested similarly using any RNase P holoenzyme and any appropriate RNase P substrate. [formula]

N. gonorrhea = test: Bacterial inhibition assay, N. Gonorrhea growth; assay type: cell-based; conditions: tested at 1, 3 and 10 μM, result in words
Experimental: (§1) Compounds of the invention (see Table 1 and FIG. 3) were assayed for their ability to inhibit bacterial growth. Compounds were diluted from 10 mM DMSO stocks to 3 mM and 1 mM in DMSO. The compounds were further diluted from these stocks into saline for 200, […], and 20 μM stocks. Control antibiotics were diluted similarly. Overnight cultures of bacteria were made in the following manner. N. gonorrhea was streaked onto a chocolate agar plate and incubated at 35° C./5% CO2. A loopful from a stock plate of E. coli was added to 3 mL TSB medium, vortexed and incubated at 37° C. in the absence of CO2. An S. aureus culture was made as described for the E. coli culture, except that a nutrient broth was used instead of TSB medium. […]
(§2) On the following day bacteria were prepared by dilution into saline with O.D. 625 nM readings taken to determine the concentration of the bacteria. CFUs (colony forming units) were determined using the formula: CFU/mL=OD625×(1.5×10^8 CFU/mL/OD McFarland std)×dilution. […] Plates were incubated at 35° C. with O2 for 16-20 hours for S. aureus, S. pyogenes, and E. coli and read at OD665 in the Victor2 plate reader. […] The plates were read at OD490. […] The results, which are expressed as a percentage of the control, were calculated using equation 2. […]

[2] = test system: bacterial growth (N. gonorrhea, E. coli, S. aureus, S. pyogenes); test: Bacterial inhibition assay (species not stated); assay type: cell-based; conditions: tested at 1, 3 and 10 μM; species not given, refers to FIGS. 1A-2
Experimental: The ability of compounds of the invention to inhibit bacterial growth can also be assessed by standard testing procedures, such as monitoring bacterial growth in the presence of one or more candidate compound. Any reduction in bacterial growth, in comparison to an uninhibited control, is a measure of the antibacterial activity of the compound. The antibacterial activity of some compounds of the invention were measured against N. gonorrhea, E. coli, S. aureus, and S. pyogenes (Example 23).
Compounds of the invention (see Table 1 and FIG. 3) were assayed for their ability to inhibit bacterial growth. Compounds were diluted from 10 mM DMSO stocks to 3 mM and 1 mM in DMSO. The compounds were further diluted from these stocks into saline for 200, 120, and 20 μM stocks. Control antibiotics were diluted similarly. Overnight cultures of bacteria were made in the following manner. N. gonorrhea was streaked onto a chocolate agar plate and incubated at 35° C./5% CO2. A loopful from a stock plate of E. coli was added to 3 mL TSB medium, vortexed and incubated at 37° C. in the absence of CO2. An S. aureus culture was made as described for the E. coli culture, except that a nutrient broth was used instead of TSB medium. Rather than make an overnight culture of S. pyogenes, a loopful of S. pyogenes from a blood plate or a stock plate was used the following day for direct cell suspension.
On the following day bacteria were prepared by dilution into saline with O.D. 625 nM readings taken to determine the concentration of the bacteria. CFUs (colony forming units) were determined using the formula: CFU/mL=OD625×(1.5×10^8 CFU/mL/OD McFarland std)×dilution. The four bacterial cultures were diluted initially to 5.5×10^7 CFU/mL. The bacteria were then further diluted into medium to 5.5×10^5 CFU/mL for S. aureus, S. pyogenes and E. coli and 5.5×10^6 CFU/mL for N. gonorrhea. S. aureus and E. coli are grown in CAMHB medium and S. pyogenes and N. gonorrhea in CAMHB-3% LHB medium. The bacteria were added one per plate at 200 μL per well. Compounds were added in 10 μL for final concentrations of 10, 3 and 1 μM in duplicate. Control antibiotics for S. aureus, oxacillin; for S. pyogenes, penicillin; for E. coli, ampicillin; and for N. gonorrhea, ciprofloxacin were added from 0.8 mg/ml to 0.003 mg/ml. Plates were incubated at 35° C. with O2 for 16-20 hours for S. aureus, S. pyogenes, and E. coli and read at OD665 in the Victor2 plate reader. Plates were incubated at 35° C. with 5% CO2 for 24 hours for N. gonorrhea at which time 40 μL of MTS reagent is added per well and incubated for 1 hour in same incubator. The plates were read at OD490. Compounds were tested at 1 μM, 3 μM, and 10 μM concentrations. The results, which are expressed as a percentage of the control, were calculated using equation 2. […]

S. aureus = test: Bacterial inhibition assay, S. aureus growth; assay type: cell-based; conditions: tested at 1, 3 and 10 μM, result in words
Experimental: as §1, §2

Structure (SMILES)	inhibition of RNase P activity (fluorescence data, percentage of the control) [1]	inhibition of RNase P activity (fluorescence data, percentage of the control) ([1]; listed as MES10609)	inhibition of bacterial growth, N. Gonorrhea growth data (N. gonorrhea)	inhibitors of bacterial growth (summary statement) [2]	inhibition of bacterial growth, S. aureus data (S. aureus)	inhibition of RNase P activity (fluorescence data, percentage of the control) ([1]; listed as MES10636)
CCN1/C(=C/C=C/c2sc3c4ccccc4ccc3[n+]2CC)Sc2cc(C)c(C)cc21 [MES 31242]	can inhibit a representative RNase P					
CCN1/C(=C/c2sc3ccc(O)cc3[n+]2CC)C=Cc2ccc(C)cc21 [MES 82794]	can inhibit a representative RNase P					
C/C(=N\NC(=N)N)c1cccc(C(=O)NCCNC(=O)c2cccc(/C(C)=N/NC(=N)N)c2)c1 [MES 10609, bisguanylhydrazone of N-(N′-2-(3-acetylbenzamido)-ethyl)-3-acetylbenzamide]	can inhibit RNase P activity	inhibitors of RNase P activity	can inhibit bacterial growth	inhibitors of bacterial growth		
C/C(=N\NC(=N)N)c1ccc(NC(=O)CNC(=O)c2cccc(/C(C)=N/NC(=N)N)c2)cc1 [MES 10635, Bisguanylhydrazone trifluoroacetic acid salt of N′-(3-acetylbenzoyl)-N-(4-acetylphenyl)glycinamide]	inhibitors of RNase P activity; also recorded: can inhibit a representative RNase P			inhibitors of bacterial growth	can inhibit bacterial growth	
CCN1/C(=C\C=c2/s/c(=C\c3sc4ccccc4[n+]3CC)n(CC)c2=O)Sc2ccccc21 [MES 35793]	can inhibit RNase P activity; also recorded: can inhibit a representative RNase P		can inhibit bacterial growth	inhibitors of bacterial growth		
C/C(=N\NC(=N)N)c1ccc(NC(=O)[C@H](Cc2ccccc2)NC(=O)c2cccc(/C(C)=N/NC(=N)N)c2)cc1 [MES 10636, Bisguanylhydrazone trifluoroacetic acid salt of N′-(3-acetylbenzoyl)-N-(4-acetylphenyl)phenylalaninamide]	can inhibit a representative RNase P			inhibitors of bacterial growth	can inhibit bacterial growth	inhibitors of RNase P activity
